Reference: article PMC13309125, “Differential regulation of hepatic macrophage fate by Chi3l1 in metabolic dysfunction-associated steatotic liver disease” (eLife, 2026)

Target: T1, Chi3l1 (chitinase 3-like 1, YKL-40) (Mus musculus, UniProt Q61362)
T1 construct: recombinant mouse Chi3l1 (rChi3l1), labelled with His-Tag Labeling Kit RED-tris-NTA
Assay: microscale thermophoresis (MST); supported by biotin-glucose pull-down competed by unlabeled glucose
Format: binding

T1 sequence (Q61362 30-389): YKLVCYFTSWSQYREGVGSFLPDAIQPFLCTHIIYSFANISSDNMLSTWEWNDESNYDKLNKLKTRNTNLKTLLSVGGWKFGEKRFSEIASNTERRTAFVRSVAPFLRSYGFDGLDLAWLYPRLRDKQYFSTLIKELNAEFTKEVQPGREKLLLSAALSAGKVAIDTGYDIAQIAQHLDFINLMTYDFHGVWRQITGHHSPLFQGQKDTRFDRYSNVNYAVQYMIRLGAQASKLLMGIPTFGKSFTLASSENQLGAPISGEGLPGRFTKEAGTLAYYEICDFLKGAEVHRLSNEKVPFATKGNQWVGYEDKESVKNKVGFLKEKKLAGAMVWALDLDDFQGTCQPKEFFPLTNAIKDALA

SMILES: OC[C@H]1OC(O)[C@H](O)[C@@H](O)[C@@H]1O (stereo partly shown) [glucose]
- Kd: 4.95 mM
